Reference: ChEMBL document CHEMBL1641589, “Phosphoramidate pronucleotides of cytostatic 6-aryl-7-deazapurine ribonucleosides” (Bioorg Med Chem, 2011)

How the values were obtained:
[1] = Cytotoxicity against human Hs578 cells after 5 days by SRB assay; format: functional; details: Hs578, 120 h
[2] = system: HCT-116; experiment: Cytotoxicity against human HCT116 cells after 5 days by SRB assay; format: functional; details: HCT-116, 120 h
[3] = system: NCI-H23; experiment: Cytotoxicity against human NCI-H23 cells after 5 days by SRB assay; format: functional; details: NCI-H23, 120 h
[4] = system: DU-145; experiment: Cytotoxicity against human DU145 cells after 5 days by SRB assay; format: functional; details: DU-145, 120 h
[5] = system: HL-60; experiment: Cytotoxicity against human HL60 cells after 5 days by SRB assay; format: functional; details: HL-60, 120 h
[6] = Cytotoxicity against human HeLaS3 cells after 3 days by XTT assay; format: functional, cell-based; details: HeLa S3, 72 h
[7] = system: CCRF-CEM; experiment: Cytotoxicity against human CCRF-CEM cells after 3 days by XTT assay; format: functional, cell-based; details: 72 h
[8] = system: HepG2; experiment: Cytotoxicity against human HepG2 cells after 3 days by XTT assay; format: functional, cell-based; details: HepG2, 72 h
[9] = system: CCRF-CEM; experiment: Cell cycle arrest in human CCRF-CEM cells assessed as accumulation at G2/M phase at IC50 concentration using propidium iodide staining by flow cytometry relative to control; format: functional
[10] = system: CCRF-CEM; experiment: Cell cycle arrest in human CCRF-CEM cells assessed as increased of cellular debris level at IC50 concentration using propidium iodide staining by flow cytometry relative to control; format: functional
[11] = system: CCRF-CEM; experiment: Cell cycle arrest in human CCRF-CEM cells assessed as accumulation at G1 phase at IC50 concentration using propidium iodide staining by flow cytometry relative to control; format: functional
[12] = system: CCRF-CEM; experiment: Cell cycle arrest in human CCRF-CEM cells assessed as accumulation at S phase at IC50 concentration using propidium iodide staining by flow cytometry relative to control; format: functional
[13] = Permeability from apical to basolateral side at 10 uM after 60 to 120 mins by HPLC analysis; format: ADME; details: not told
[14] = Permeability from basolateral to apical side of human Caco2 cells at 10 uM after 60 to 120 mins by HPLC analysis; format: ADME, cell-based; details: Caco-2
[15] = Efflux ratio of permeability from basolateral to apical side over apical to basolateral side in human Caco2 cells at 10 uM after 60 to 120 mins by HPLC analysis; format: ADME, cell-based; details: Caco-2
[16] = Permeability from apical to basolateral side of human Caco2 cells at 10 uM after 60 to 120 mins by HPLC analysis; format: ADME, cell-based; details: Caco-2

| Compound | GI50 [1] [µM] | GI50 [2] [µM] | GI50 [3] [µM] | GI50 [4] [µM] | GI50 [5] [µM] | IC50 [6] [µM] | IC50 [7] [µM] | IC50 [8] [µM] | Activity [9] [%] | Activity [10] [%] | Activity [11] [%] | Activity [12] [%] | Papp A→B at 10 µM [13] [×10⁻⁶ cm/s] | Papp B→A at 10 µM [14] [×10⁻⁶ cm/s] | efflux ratio at 10 µM [15] | Papp A→B at 10 µM [16] [×10⁻⁶ cm/s] |
| --- | --- | --- | --- | --- | --- | --- | --- | --- | --- | --- | --- | --- | --- | --- | --- | --- |
| COC(=O)[C@H](C)NP(=O)(OC[C@H]1O[C@@H](n2ccc3c(-c4ccoc4)ncnc32)[C@H](O)[C@@H]1O)Oc1ccccc1 (stereo partly specified) | > 10 | 7.95 | > 10 | 3.86 | > 10 | 7.84 | > 10 | 3.61 |  |  |  |  |  |  |  |  |
| CCOC(=O)[C@H](C)NP(=O)(OC[C@H]1O[C@@H](n2ccc3c(-c4ccoc4)ncnc32)[C@H](O)[C@@H]1O)Oc1ccccc1 (stereo partly specified) | 5.97 | 9.06 | 8.28 | 9.05 | > 10 | 4.89 | > 10 | 2.96 |  |  |  |  |  |  |  |  |
| C[C@H](NP(=O)(OC[C@H]1O[C@@H](n2ccc3c(-c4ccoc4)ncnc32)[C@H](O)[C@@H]1O)Oc1ccccc1)C(=O)OCc1ccccc1 (stereo partly specified) | 1.1 | 1.42 | 5.19 | 1.09 | > 10 | 1.31 | 3.11 | 2.01 | 8.4 | 21.5 | 37.5 | 54 |  |  |  |  |
| COC(=O)[C@H](C)NP(=O)(OC[C@H]1O[C@@H](n2ccc3c(-c4cccs4)ncnc32)[C@H](O)[C@@H]1O)Oc1ccccc1 (stereo partly specified) | 6.59 | 6.22 | 6.79 | 3.23 | > 10 | 2.51 | 8.47 | 1.41 |  |  |  |  | 35.1 | 9.75 | 13.3 | 0.74 |
| CCOC(=O)[C@H](C)NP(=O)(OC[C@H]1O[C@@H](n2ccc3c(-c4cccs4)ncnc32)[C@H](O)[C@@H]1O)Oc1ccccc1 (stereo partly specified) | 9.6 | > 10 | 10.9 | > 10 | > 10 | 5.93 | > 10 | 1.53 |  |  |  |  | 33.8 | 9.62 | 12.7 | 0.76 |
| C[C@H](NP(=O)(OC[C@H]1O[C@@H](n2ccc3c(-c4cccs4)ncnc32)[C@H](O)[C@@H]1O)Oc1ccccc1)C(=O)OCc1ccccc1 (stereo partly specified) | 1.42 | 0.68 | 5.12 | 0.989 |  | 1.56 | 2.09 | 0.88 | 11.5 | 49.5 | 30.7 | 57.9 | 29.9 | 13.2 | 12 | 1.1 |
| CCOC(=O)[C@H](C)NP(=O)(OC[C@H]1O[C@@H](n2ccc3c(-c4ccsc4)ncnc32)[C@H](O)[C@@H]1O)Oc1ccccc1 (stereo partly specified) | > 10 | > 10 | > 10 | > 10 | > 10 | > 10 | > 10 | > 10 |  |  |  |  |  |  |  |  |
| C[C@H](NP(=O)(OC[C@H]1O[C@@H](n2ccc3c(-c4ccsc4)ncnc32)[C@H](O)[C@@H]1O)Oc1ccccc1)C(=O)OCc1ccccc1 (stereo partly specified) | 7.56 | 7.51 | 7.44 | 3.57 | > 10 | 5.45 | > 10 | 4.58 | 9.9 | 22.2 | 35.9 | 54.2 |  |  |  |  |
| COC(=O)[C@H](C)NP(=O)(OC[C@H]1O[C@@H](n2ccc3c(-c4ccccc4)ncnc32)[C@H](O)[C@@H]1O)Oc1ccccc1 (stereo partly specified) | > 10 | > 10 | > 10 | > 10 | > 10 | > 10 | > 10 | > 10 |  |  |  |  |  |  |  |  |
| CCOC(=O)[C@H](C)NP(=O)(OC[C@H]1O[C@@H](n2ccc3c(-c4ccccc4)ncnc32)[C@H](O)[C@@H]1O)Oc1ccccc1 (stereo partly specified) | > 10 | > 10 |  |  | > 10 | > 10 | > 10 | > 10 |  |  |  |  |  |  |  |  |
| C[C@H](NP(=O)(OC[C@H]1O[C@@H](n2ccc3c(-c4ccccc4)ncnc32)[C@H](O)[C@@H]1O)Oc1ccccc1)C(=O)OCc1ccccc1 (stereo partly specified) | > 10 | > 10 |  |  | 5.65 | > 10 | > 10 | > 10 |  |  |  |  |  |  |  |  |
| COC(=O)[C@H](C)NP(=O)(OC[C@H]1O[C@@H](n2ccc3c(-c4cccc5c4oc4ccccc45)ncnc32)[C@H](O)[C@@H]1O)Oc1ccccc1 (stereo partly specified) | > 10 | > 10 |  |  | > 10 | > 10 | > 10 | > 10 |  |  |  |  |  |  |  |  |
| CCOC(=O)[C@H](C)NP(=O)(OC[C@H]1O[C@@H](n2ccc3c(-c4cccc5c4oc4ccccc45)ncnc32)[C@H](O)[C@@H]1O)Oc1ccccc1 (stereo partly specified) | > 10 | > 10 |  |  | > 10 | > 10 | > 10 | > 10 |  |  |  |  |  |  |  |  |
| C[C@H](NP(=O)(OC[C@H]1O[C@@H](n2ccc3c(-c4cccc5c4oc4ccccc45)ncnc32)[C@H](O)[C@@H]1O)Oc1ccccc1)C(=O)OCc1ccccc1 (stereo partly specified) | > 10 | > 10 |  |  | > 10 | > 10 | > 10 | > 10 |  |  |  |  |  |  |  |  |
| OC[C@H]1O[C@@H](n2ccc3c(-c4cccc5c4oc4ccccc45)ncnc32)[C@H](O)[C@@H]1O | > 10 | > 10 |  |  | > 10 | > 10 | > 10 | > 10 |  |  |  |  |  |  |  |  |
| OC[C@H]1O[C@@H](n2ccc3c(-c4ccoc4)ncnc32)[C@H](O)[C@@H]1O |  |  |  |  | 1.5 |  |  | 1.72 |  |  |  |  |  |  |  |  |
| OC[C@H]1O[C@@H](n2ccc3c(-c4ccsc4)ncnc32)[C@H](O)[C@@H]1O |  |  |  |  | > 40 |  |  | 3.22 |  |  |  |  |  |  |  |  |
| OC[C@H]1O[C@@H](n2ccc3c(-c4ccco4)ncnc32)[C@H](O)[C@@H]1O |  |  |  |  | 0.81 |  |  | 0.47 |  |  |  |  |  |  |  |  |
| OC[C@H]1O[C@@H](n2ccc3c(-c4ccccc4)ncnc32)[C@H](O)[C@@H]1O | 3.1 | 5.7 |  | 0.075 |  | 4.1 | 1 | > 10 |  |  |  |  |  |  |  |  |
| OC[C@H]1O[C@@H](n2ccc3c(-c4cccs4)ncnc32)[C@H](O)[C@@H]1O |  |  |  |  | 1.2 | 0.29 | 8.8 | 1.19 |  |  |  |  | 34.1 | 9.31 | 5.9 | 1.57 |
